Experimental data reported in article PMC3038857, “Using Nuclear Receptor Activity to Stratify Hepatocarcinogens” (PLoS ONE, 2011).

What was measured:
LXRa (NR1H3) = target: T1, LXRa (NR1H3) (Homo sapiens, UniProt Q13133); assay: ATG_LXRa_TRANS: Factorial reporter gene assay (HepG2); assay type: cell-based; details: HepG2; scale not given, looks like -log10 of molar active concentration; 0 = no activity
T1 construct: expressed in transfected cells; host or cells: HepG2
T1 sequence (Q13133 1-447): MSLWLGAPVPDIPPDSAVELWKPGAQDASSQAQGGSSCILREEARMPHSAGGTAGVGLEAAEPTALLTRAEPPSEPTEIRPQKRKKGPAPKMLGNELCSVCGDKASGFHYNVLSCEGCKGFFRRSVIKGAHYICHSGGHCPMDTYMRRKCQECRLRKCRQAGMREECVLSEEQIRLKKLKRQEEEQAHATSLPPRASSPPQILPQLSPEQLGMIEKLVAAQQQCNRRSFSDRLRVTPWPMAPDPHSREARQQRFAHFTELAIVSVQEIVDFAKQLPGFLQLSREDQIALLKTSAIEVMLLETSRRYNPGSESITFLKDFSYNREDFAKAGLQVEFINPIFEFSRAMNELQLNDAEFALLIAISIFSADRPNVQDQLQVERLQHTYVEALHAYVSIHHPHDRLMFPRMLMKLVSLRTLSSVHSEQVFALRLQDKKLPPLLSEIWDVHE
In short: (§1)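 Seven concentrations per chemical, three-fold dilutions down from the MTC, were tested in HepG2 hepatoma cells. Those cells carried a multiple reporter transcription unit library, read either as cis transcription-factor-site reporters or as a trans mammalian one-hybrid panel for nuclear receptors.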

CAR (NR1I3) = target: T2, CAR (NR1I3) (Homo sapiens, UniProt Q14994); assay: ATG_PBREM_CIS: Factorial reporter gene assay (HepG2); assay type: cell-based; design: endogenous in cells; host or cells: HepG2; scale not given here; details: HepG2; scale not given, looks like -log10 of molar active concentration; 0 = no activity
T2 sequence (Q14994 1-352): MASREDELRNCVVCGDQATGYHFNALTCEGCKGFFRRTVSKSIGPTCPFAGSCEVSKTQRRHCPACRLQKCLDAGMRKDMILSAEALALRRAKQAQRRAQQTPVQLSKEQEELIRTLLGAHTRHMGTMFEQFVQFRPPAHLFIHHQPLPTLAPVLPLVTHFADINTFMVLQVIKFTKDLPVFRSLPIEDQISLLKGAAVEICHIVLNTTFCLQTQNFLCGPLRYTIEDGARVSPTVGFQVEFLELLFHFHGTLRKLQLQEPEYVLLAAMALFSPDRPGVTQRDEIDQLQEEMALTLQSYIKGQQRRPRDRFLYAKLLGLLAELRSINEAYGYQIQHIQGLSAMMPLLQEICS
In short: as §1

[1] = target: T3, PPARG (peroxisome proliferator-activated receptor gamma) (Homo sapiens, UniProt P37231); assay: ATG_PPARg_TRANS: Factorial reporter gene assay (HepG2); assay type: cell-based; details: HepG2; scale not given, looks like -log10 of molar active concentration; 0 = no activity
T3 construct: expressed in transfected cells; host or cells: HepG2
T3 sequence (P37231 1-505): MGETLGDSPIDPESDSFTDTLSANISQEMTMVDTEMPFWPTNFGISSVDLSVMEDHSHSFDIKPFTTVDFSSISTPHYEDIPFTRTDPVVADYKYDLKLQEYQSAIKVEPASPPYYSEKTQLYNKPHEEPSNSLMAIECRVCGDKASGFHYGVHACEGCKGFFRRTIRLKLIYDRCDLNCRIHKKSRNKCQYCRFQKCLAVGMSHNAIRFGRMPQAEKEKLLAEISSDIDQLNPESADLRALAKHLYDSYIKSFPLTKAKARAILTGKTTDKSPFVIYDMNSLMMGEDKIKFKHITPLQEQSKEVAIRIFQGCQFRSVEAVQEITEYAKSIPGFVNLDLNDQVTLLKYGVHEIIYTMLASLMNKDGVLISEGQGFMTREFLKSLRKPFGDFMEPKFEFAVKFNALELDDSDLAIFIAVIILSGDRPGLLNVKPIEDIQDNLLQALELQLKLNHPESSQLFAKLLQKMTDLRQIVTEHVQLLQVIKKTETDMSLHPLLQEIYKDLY
In short: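 Compounds at seven concentrations (top at MTC, threefold serial) were applied to transfected HepG2 hepatoma cells, with PXRE scored by cis-element reporters and ERRg, FXR and PPARg scored by trans one-hybrid nuclear receptor reporters.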

Rat Liver = details: rat chronic study, liver, any lesion; coded 6 / 0, code not explained here; ref ToxRefDB; cited from earlier work
CYP1A2 = assay: CLZD_CYP1A2: Change in expression of CYP1A2 (primary human hepatocytes); assay type: cell-based; details: 24 hr, scale not given, looks like -log10 of molar active concentration, 0 = no activity
In short: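 Primary human hepatocyte cultures were exposed to test chemicals at 5 concentrations (0.004-40 µM) for 6, 24 or 48 hr.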

| SMILES | ATG_LXRa_TRANS (LXRa (NR1H3)) | ATG_PBREM_CIS (CAR (NR1I3)) | ATG_PPARg_TRANS [1] | CHR_Rat_Liver_1_AnyLesion (Rat Liver) | CLZD_CYP1A2_24 (CYP1A2) |
| --- | --- | --- | --- | --- | --- |
| N#Cc1cc(Br)c(O)c(Br)c1 [r44] | 0 | 0 | 4.398 | 6 | 0 |
| CCC(C)n1c(=O)[nH]c(C)c(Br)c1=O (stereo not drawn) [r43] | 0 | 0 | 0 | 0 | 4.966 |
| COc1nc(C)nc(NC(=O)NS(=O)(=O)c2ccccc2Cl)n1 [r62] | 0 | 0 | 0 | 6 | 0 |
| CCOC(=O)C(Cl)Cc1cc(-n2nc(C)n(C(F)F)c2=O)c(F)cc1Cl (stereo not drawn) [r54] | 0 | 0 | 4.319 | 6 | 0 |
| CC(C)N1C(=O)N(c2ccccc2)CS/C1=N\C(C)(C)C [r45] | 0 | 0 | 0 | 6 | 0 |
| CC(C)(c1ccc(O)cc1)c1ccc(O)cc1 [r40] | 0 | 0 | 4.569 | 0 | 0 |
| Cc1c(COC(=O)C2C(/C=C(\Cl)C(F)(F)F)C2(C)C)cccc1-c1ccccc1 (stereo not drawn) [r39] | 0 | 0 | 0 | 0 | 0 |
| Cc1ccccc1CO[C@@H]1C[C@@]2(C(C)C)CC[C@]1(C)O2 [r64] | 4.377 | 0 | 4.377 | 6 | 5.157 |
| Nc1cnn(-c2ccccc2)c(=O)c1Cl [r56] | 0 | 0 | 4.409 | 0 | 4.955 |
| CCCCOCN(C(=O)CCl)c1c(CC)cccc1CC [r46] | 0 | 0 | 5.678 | 6 | 0 |
| COc1nc(C)nc(NC(=O)NS(=O)(=O)c2ccccc2Cl)n1 [r63] | 0 | 0 | 0 | 6 | 0 |
| CCSC(=O)N(CC(C)C)CC(C)C [r49] | 0 | 0 | 0 | 6 | 0 |
